Reference: patent US10047105B2, “Gyrase inhibitors” (Merck Sharp & Dohme Corp., priority 2009, dated 2018)
Values after ≈ are worked out from the molar mass of the structure shown.

Key:
Assay type in all cases: cell-based
S. aureus ATCC 13709 = experiment: MIC, antibacterial potency, S. aureus; details: S. aureus (SA); in µg/mL
S. pneumoniae ATCC 51916 = experiment: MIC, S. pneumoniae; details: S. pneumoniae (Spn52); in µg/mL
E. coli 8 ATCC 25922 = experiment: MIC, E. coli 8 (wt); details: E. coli 8 (EC8)

SMILES	MIC, SA (S. aureus ATCC 13709)	MIC Spn52 (S. pneumoniae ATCC 51916)	MIC EC8 (E. coli 8 ATCC 25922)
CCc1[nH]c2nc(Oc3cncnc3)nc(Oc3ccc4c(N5CCOCC5)ncnc4c3)c2c1Br [701,104]	<=0.5	<=0.5	> 32 µg/mL
CCc1[nH]c2nc(Oc3cnc(O)nc3)nc(Oc3cnc(O)nc3)c2c1Br [701,105]	1	2	> 64 µg/mL
CCc1[nH]c2nc(Oc3cnc(N)nc3)nc(Oc3cnc(N)nc3)c2c1Br [701,106]	2	4	> 64 µg/mL
CCc1[nH]c2nc(Oc3cnc(N)nc3)nc(N3CC(CN(C)C)C3)c2c1Cl [701,112]	16	32	> 64 µg/mL
CCc1[nH]c2nc(Oc3ccc4nccnc4c3)nc(N3CC(CN(C)C)C3)c2c1Cl [701,113]	32	32	> 64 µg/mL
CCc1[nH]c2nc(Oc3ccc4nccnc4c3)nc(N3CC(CN(C)C)C3)c2c1Br [701,114]	8	16	> 64 µg/mL
CCc1[nH]c2nc(Sc3cnc4cccnc4c3)nc(N3CCC4CNC4C3)c2c1Cl (stereo not drawn) [701,115]	<=0.5	<=0.5	16 µg/mL (≈ 35.4 µM)
CCc1[nH]c2nc(Sc3cnc4ccc[n+]([O-])c4c3)nc(N3CCC4CNC4C3)c2c1Cl (stereo not drawn) [701,116]	<=0.5	2	16 µg/mL (≈ 34.2 µM)
Cc1[nH]c2nc(Sc3cnc4nccnc4c3)nc(N3CC4C(N)C4C3)c2c1C (stereo not drawn) [701,117]	8	8	> 64 µg/mL
CCc1[nH]c2nc(Sc3cnc4nccnc4c3)nc(N3CC4NC4C3)c2c1Cl (stereo not drawn) [701,118]	4	2	64 µg/mL (≈ 151 µM)
CCc1[nH]c2nc(Sc3cnc4nccnc4c3)nc(N3C[C@@H](O)[C@@H](N)C3)c2c1Cl [701,119]	32	16	> 64 µg/mL
CCc1[nH]c2nc(Sc3cnc4nccnc4c3)nc(N3CCC(CC)(NC(=O)C(F)(F)F)C3)c2c1Cl (stereo not drawn) [701,120]	4	32	> 64 µg/mL
CCc1[nH]c2nc(Oc3cnc(N)nc3)nc(N3CC4C(N)C4C3)c2c1Cl (stereo not drawn) [701,122]	2	2	32 µg/mL (≈ 82.7 µM)
CCc1[nH]c2nc(Oc3cnc4cccnc4c3)nc(N3CC4C(N)C4C3)c2c1Cl (stereo not drawn) [701,126]	<=0.5	<=0.5	4 µg/mL (≈ 9.48 µM)
CCc1[nH]c2nc(Sc3cnc4cccnc4c3)nc(N3CC4CC(C3)N(C(=O)OC(C)(C)C)C4)c2c1Cl (stereo not drawn) [701,132]	>64	>64	> 64 µg/mL
CCc1[nH]c2nc(Oc3cnc(C(N)=O)nc3)nc(N3CC4C(N)C4C3)c2c1Cl (stereo not drawn) [701,133]	8	8	> 64 µg/mL
CCc1[nH]c2nc(Sc3cnc4nccnc4c3)nc(N3CC4CNC(C4)C3)c2c1Cl (stereo not drawn) [701,137]	2	4	64 µg/mL (≈ 141 µM)
CCc1[nH]c2nc(Oc3cccnc3)nc(N3CC4C(N)C4C3)c2c1Cl (stereo not drawn) [701,140]	4	8	> 64 µg/mL
CCc1[nH]c2nc(Sc3cnc4cccnc4c3)nc(N3CC4C(N)C4C3)c2c1C (stereo not drawn) [701,143]	<=0.5	2	64 µg/mL (≈ 153 µM)
CCc1[nH]c2nc(Sc3cnc4nccnc4c3)nc(N3C[C@@H]4[C@H](C3)[C@@]4(N)CO)c2c1Cl [701,144]	<=0.5	2	32 µg/mL (≈ 68.2 µM)
CCc1[nH]c2nc(Sc3cnc4nccnc4c3)nc(N(CCN)CC(C)c3ccccc3)c2c1Cl (stereo not drawn) [701,147]	32	64	> 64 µg/mL
CCc1[nH]c2nc(Sc3cnc4nccnc4c3)nc(N(CCN)CC(C)C)c2c1Cl [701,148]	64	64	> 64 µg/mL
CCc1[nH]c2nc(Oc3cnc(C)nc3)nc(N3CC4C(N)C4C3)c2c1Cl (stereo not drawn) [701,151]	<=0.5	2	8 µg/mL (≈ 20.7 µM)

SMILES	MIC, SA (S. aureus ATCC 13709)	MIC Spn52 (S. pneumoniae ATCC 51916)	MIC EC8 (E. coli 8 ATCC 25922)
CCc1[nH]c2nc(Sc3cccnc3)nc(Cl)c2c1C(F)F [701,153]	64	>64	> 64 µg/mL
CCc1[nH]c2nc(Sc3cnc4cccnc4c3)nc(N3CC[C@@H](N)C3)c2c1C [701,161]	4	16	64 µg/mL (≈ 158 µM)
CCc1[nH]c2nc(Sc3cccnc3)nc(N3C[C@@H]4[C@@H](N)[C@@H]4C3)c2c1C(F)F [701,162]	16	32	> 32 µg/mL
CCc1[nH]c2nc(Oc3cncc(C(=O)OC)c3)nc(N3CC4C(N)C4C3)c2c1Cl (stereo not drawn) [701,163]	>64	>64	> 64 µg/mL
CCc1[nH]c2nc(Sc3cncc(S(=O)(=O)N(C)C)c3)nc(N3CC[C@@H](N)C3)c2c1Cl [701,180]	16	32	> 64 µg/mL
CCc1[nH]c2nc(Sc3cncc(S(=O)(=O)N(C)C)c3)nc(N3CC4C(N)C4C3)c2c1Cl (stereo not drawn) [701,181]	2	8	> 64 µg/mL
CCc1[nH]c2nc(Sc3cncc(S(=O)(=O)N(C)C)c3)nc(N3CC[C@@H](N)C3)c2c1C [701,182]	>64	>64	> 64 µg/mL
CCc1[nH]c2nc(Sc3cncc(S(=O)(=O)N(C)C)c3)nc(N3CC4C(N)C4C3)c2c1C (stereo not drawn) [701,183]	16	64	> 64 µg/mL
CCc1[nH]c2nc(Sc3ccc4c(N5CC[C@@H](N)C5)cc(=O)oc4c3)nc(N3CC[C@@H](N)C3)c2c1Cl [701,184]	>64	>64	> 64 µg/mL
CCc1[nH]c2nc(Oc3cncnc3)nc(N3CC4C(N)C4C3)c2c1C (stereo not drawn) [701,193]	8	32	64 µg/mL (≈ 182 µM)
N[C@@H]1CCN(c2nc(Sc3cnc4cccnc4c3)nc3[nH]c(CC(F)(F)F)c(Cl)c23)C1 [701,209]	2	4	> 64 µg/mL
CCc1[nH]c2nc(Sc3ccc4cc5c([n+]([O-])c4c3)CCN(C(=O)CCCC[C@@H]3SC[C@@H]4NC(=O)N[C@@H]43)C5)nc(N3CC4C(C3)C4(N)C(N)=O)c2c1Cl (stereo partly drawn) [701,229]	4	32	> 64 µg/mL
CCc1[nH]c2nc(Oc3cncc(C(N)=O)c3)nc(C)c2c1Cl [701,231]	2	4	> 64 µg/mL
CCc1[nH]c2nc(Oc3ccc4nccnc4c3)nc(C)c2c1Cl [701,232]	1	4	> 64 µg/mL
CCc1[nH]c2nc(Oc3cncnc3)nc(Oc3ccc4nccnc4c3)c2c1C [701,233]	1.	8	> 64 µg/mL
NC1C2CN(c3nc(Sc4cnc5ccc[n+]([O-])c5c4)nc4[nH]c(CC(F)(F)F)c(Cl)c34)CC12 (stereo not drawn) [701,236]	>64	>64	> 64 µg/mL
CCc1[nH]c2nc(N3CCN(c4cc(C(=O)OC)nc5ccc(Cl)cc45)CC3)ncc2c1Cl [701,237]	>64	>64	> 64 µg/mL
CCc1[nH]c2nc(Oc3ccc4nccnc4c3)ncc2c1Cl [701,238]	4	32	> 64 µg/mL
CCc1[nH]c2nc(Sc3cnc4ncn(C)c(=O)c4c3)nc(N3CC4C(N)C4C3)c2c1C (stereo not drawn) [701,239]	2	16	64 µg/mL (≈ 143 µM)
Cc1nc(Sc2cncc(C(N)=O)c2)nc2[nH]c(C(C)O)c(Cl)c12 (stereo not drawn) [701,240]	>64	>64	> 64 µg/mL
CCc1[nH]c2nc(Oc3cncnc3)nc(Oc3cnc(N)nc3)c2c1Cl [701,241]	1	2	> 64 µg/mL
CCc1[nH]c2nc(Oc3cncnc3)nc(Oc3cc(O)cc(C#N)c3)c2c1Br [701,249]	<=0.5	<=0.5	8 µg/mL (≈ 17.7 µM)
